Experimental data from patent publication US20250213510A1, “Aqueous Composition” (TSUBOTA LABORATORY, Inc., priority 2022, published 2025).

How the values were obtained:
[1] = Stability of sodium 4-phenylbutyrate in multi-dose type containers (liquid chromatography); type: physicochemical; details: PE, PP, PET; 60° C., 1 week (Table 1-2)
Protocol: Each aqueous composition (formulations 1-0 to 1-4) shown in Table 1-1 was prepared through a usual method to fill 5-mL volume multi-dose type containers made of polyethylene (PE), polypropylene (PP), and polyethylene terephthalate (PET) by 5 mL each.
Liquid chromatography was used to quantify sodium 4-phenylbutyrate. 10 μL of 0.05 w/v % sodium 4-phenylbutyrate solution was used as a standard solution, and 10 μL of a formulation diluted 10 times with a mobile phase was used as a sample solution. The standard solution and the sample solution were each placed on a reverse-phase column (YMC-Pack ODS-A (I.D. 4.6 mm×150 mm, 5 μm) manufactured by YMC CO., LTD.) maintained at 30° C., and eluted with a 0.2% formic acid solution-acetonitrile mixture as a mobile phase. Detection was performed with an ultraviolet absorptiometer (measurement wavelength: 260 nm). Thereafter, the peak area of sodium 4-phenylbutyrate was measured for the standard solution and the sample solution, and the concentration of sodium 4-phenylbutyrate was determined for each formulation immediately after preparation and after storage at 60° C. for 1 week using Equation 1 below.

[2] = Stability of sodium 4-phenylbutyrate in unit-dose type containers (liquid chromatography); type: physicochemical; details: PE, COC/PE; 40° C., 1 month (Table 1-5)
Protocol: An aqueous composition (formulation 2-1) shown in Table 1-4 was prepared through a usual method to fill a 0.5-mL volume polyethylene (PE) unit-dose type container and a unit-dose type resin container made of a mixture of a cyclic olefin copolymer (COC) and polyethylene (PE) by 0.5 mL each.
Liquid chromatography was used to quantify sodium 4-phenylbutyrate. 20 μL of 0.02 w/v % sodium 4-phenylbutyrate solution was used as a standard solution, and 20 μL of a formulation 2-1 diluted 10 times with a mobile phase was used as a sample solution. The standard solution and the sample solution were each placed on a reverse-phase column (YMC-Pack ODS-A (I.D. 4.6 mm×150 mm, 5 μm) manufactured by YMC CO., LTD.) maintained at 30° C., and eluted with a 0.2% formic acid solution-acetonitrile mixture as a mobile phase. Detection was performed with an ultraviolet absorptiometer (measurement wavelength: 260 nm). Thereafter, the peak area of sodium 4-phenylbutyrate was measured for the standard solution and the sample solution, and the concentration of sodium 4-phenylbutyrate was determined for the formulation 2-1 immediately after preparation and after storage at 40° C. for 1 month using Equation 3 below.

Structure (SMILES): O=C([O-])CCCc1ccccc1.[Na+] [sodium 4-phenylbutyrate, Sodium 4-phenylbutyrate]
- Stability of sodium 4-phenylbutyrate itself among the container resins [1]: no difference in stability
- Stability of sodium 4-phenylbutyrate itself among the container resins [2]: no difference in stability
